What was measured:
Format in all cases: functional
Mus musculus [1] = assay: Analgesic activity (0.5 ug icv) tested after 5min, in mice tail-flick test
Mus musculus [2] = assay: Analgesic activity (0.5 ug icv) tested after 60min, in mice tail-flick test
Mus musculus [3] = assay: Analgesic activity (0.5 ug icv) tested after 30min, in mice tail-flick test
Mus musculus [4] = assay: Analgesic activity (5 ug icv) tested after 60min, in mice tail-flick test
Mus musculus [5] = assay: Analgesic activity (5 ug icv) tested after 30min, in mice tail-flick test
Mus musculus [6] = assay: Analgesic activity (0.5 ug icv) tested after 5 min in mice tail-flick test
Mus musculus [7] = assay: Analgesic activity (2.5 ug icv) tested after 60min, in mice tail-flick test
Mus musculus [8] = assay: Analgesic activity (5 ug icv) tested after 5min, in mice tail-flick test
Mus musculus [9] = assay: Analgesic activity (2.5 ug icv) tested after 5min, in mice tail-flick test
Mus musculus [10] = assay: Analgesic activity (2.5 ug icv) tested after 30min, in mice tail-flick test
Mus musculus [11] = assay: Analgesic activity (0.5 ug icv) tested after 30 min in mice tail-flick test
Mus musculus [12] = assay: Analgesic activity (0.5 ug icv) tested after 60 min in mice tail-flick test
Mus musculus [13] = assay: Analgesic activity (6.25 ug icv) tested after 30min, in mice tail-flick test
Mus musculus [14] = assay: Analgesic activity (6.25 ug icv) tested after 5min, in mice tail-flick test
Mus musculus [15] = assay: Analgesic activity (3.125 ug icv) tested after 5min, in mice tail-flick test
Mus musculus [16] = assay: Analgesic activity (1 ug icv) tested after 5min, in mice tail-flick test
Mus musculus [17] = assay: Analgesic activity (3.125 ug icv) tested after 60min, in mice tail-flick test
Mus musculus [18] = assay: Analgesic activity (3.125 ug icv) tested after 30min, in mice tail-flick test
Mus musculus [19] = assay: Analgesic activity (1 ug icv) tested after 30min, in mice tail-flick test
Mus musculus [20] = assay: Analgesic activity (6.25 ug icv) tested after 60min, in mice tail-flick test
Mus musculus [21] = assay: Analgesic activity (1 ug icv) tested after 60min, in mice tail-flick test
Mus musculus [22] = assay: Analgesic activity (25 ug icv) tested after 30min, in mice tail-flick test
Mus musculus [23] = assay: Analgesic activity (12.5 ug icv) tested after 30min, in mice tail-flick test
Mus musculus [24] = assay: Analgesic activity (12.5 ug icv) tested after 5min, in mice tail-flick test
Mus musculus [25] = assay: Analgesic activity (25 ug icv) tested after 5min, in mice tail-flick test
Mus musculus [26] = assay: Analgesic activity (12.5 ug icv) tested after 60min, in mice tail-flick test
Mus musculus [27] = assay: Analgesic activity (25 ug icv) tested after 60min, in mice tail-flick test

Compound	Change in reaction time (Mus musculus [1])	Change in reaction time (Mus musculus [2])	Change in reaction time (Mus musculus [3])	Change in reaction time (Mus musculus [7])	Change in reaction time (Mus musculus [9])	Change in reaction time (Mus musculus [10])	other results
COC(=O)[C@H](Cc1cn(Sc2ccccc2[N+](=O)[O-])c2ccccc12)NC(=O)[C@@H](N)CCCN=C(N)N	120%	22%	52%	–	–	–	–
COC(=O)[C@H](Cc1cn(Sc2ccccc2[N+](=O)[O-])c2ccccc12)NC(=O)[C@@H](N)CCCCN	98%	20%	50%	–	–	–	–
COC(=O)[C@H](CCCCN)NC(=O)[C@@H](N)Cc1cn(Sc2ccccc2[N+](=O)[O-])c2ccccc12	138%	33%	76%	–	–	–	–
COC(=O)[C@@H](CCCN=C(N)N)NC(=O)[C@@H](N)Cc1cn(Sc2ccccc2[N+](=O)[O-])c2ccccc12.Cl	–	9%	23%	9%	20%	18%	Change in reaction time (Mus musculus [4]): 30%; Change in reaction time (Mus musculus [5]): 88%; Change in reaction time (Mus musculus [6]): 18%; Change in reaction time (Mus musculus [8]): 97%
COC(=O)[C@H](CCCN=C(N)N)NC(=O)[C@@H](N)Cc1cn(Sc2ccccc2[N+](=O)[O-])c2ccccc12.Cl	–	–	–	–	–	–	Change in reaction time (Mus musculus [11]): 63%; Change in reaction time (Mus musculus [6]): 113%; Change in reaction time (Mus musculus [12]): 20%
COC(=O)[C@H](CCCN=C(N)N)NC(=O)[C@H](N)Cc1cn(Sc2ccccc2[N+](=O)[O-])c2ccccc12.Cl	30%	23%	26%	20%	125%	41%	–
COC(=O)[C@@H](CCCN=C(N)N)NC(=O)[C@H](N)Cc1cn(Sc2ccccc2[N+](=O)[O-])c2ccccc12.Cl	6%	-2%	10%	-2%	16%	3%	Change in reaction time (Mus musculus [4]): 29%; Change in reaction time (Mus musculus [5]): 42%; Change in reaction time (Mus musculus [8]): 34%
NC(N)=NCCC[C@@H](NC(=O)[C@H](N)Cc1ccc(O)cc1)C(=O)O	–	–	–	–	–	–	Change in reaction time (Mus musculus [13]): 68%; Change in reaction time (Mus musculus [14]): 102%; Change in reaction time (Mus musculus [15]): 79%; Change in reaction time (Mus musculus [16]): 10%; Change in reaction time (Mus musculus [17]): 15%; Change in reaction time (Mus musculus [18]): 34%; Change in reaction time (Mus musculus [19]): 5%; Change in reaction time (Mus musculus [20]): 10%; Change in reaction time (Mus musculus [21]): -2%
Cl.N=C(N)NCCCC1NC(=O)[C@H](Cc2cn(Sc3ccccc3[N+](=O)[O-])c3ccccc23)NC1=O (stereo in doubt)	35%	15%	23%	–	–	–	–
NC(N)=NCCC[C@H](NC(=O)[C@@H](N)Cc1ccc(O)cc1)C(=O)O [KYOTORPHIN]	–	–	–	–	–	–	Change in reaction time (Mus musculus [22]): 31%; Change in reaction time (Mus musculus [23]): 1%; Change in reaction time (Mus musculus [24]): 18%; Change in reaction time (Mus musculus [25]): 98%; Change in reaction time (Mus musculus [26]): 6%; Change in reaction time (Mus musculus [27]): 10%
